Biological target: T1, Androgen receptor (AR) (Rattus norvegicus, UniProt P15207)
T1 sequence (P15207 646-902 limits assumed): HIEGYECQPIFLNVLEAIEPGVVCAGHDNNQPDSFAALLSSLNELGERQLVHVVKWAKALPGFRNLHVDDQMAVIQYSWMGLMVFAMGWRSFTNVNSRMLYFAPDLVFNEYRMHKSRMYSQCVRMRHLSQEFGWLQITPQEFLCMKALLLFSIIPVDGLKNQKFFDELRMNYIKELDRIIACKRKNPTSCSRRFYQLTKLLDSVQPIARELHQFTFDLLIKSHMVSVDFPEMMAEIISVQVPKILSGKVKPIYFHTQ
Test: fluorescence polarization competition assay (PolarScreen AR Competitor Assay kit); very weak
Type: binding

O=C(/C=C/c1ccc(O)c(O)c1)OCCc1ccccc1 [Caffeic acid phenethyl ester]
IC50: 132 µM

— paper PMC6700801, “Caffeic acid phenethyl ester suppresses androgen receptor signaling and stability via inhibition of phosphorylation on Ser81 and Ser213” (Cell Communication and Signaling : CCS, 2019)
